US8048880B2, “Treatment of cardiovascular disease and dyslipidemia using secretory phospholipase A2 (SPLA2) inhibitors and SPLA2 inhibitor combination therapies” (Anthera Pharmaceuticals, Inc., priority 2007, dated 2011)

Key:
[1] = tested on: human subjects with CVD, specifically stable coronary artery disease; test: Serum lipid levels in humans, A-002 twice a day for eight weeks (Example 4); type: in vivo
Method: (§1) 204 human subjects from the United States with CVD, specifically stable coronary artery disease, were randomized to receive placebo or A-002 via oral administration twice a day over an eight week administration period at dosages of 50 mg, 100 mg, 250 mg, or 500 mg. Levels of various lipids and inflammatory markers were measured at the outset of the trial and at the end of weeks four and/or eight. For data sets with a normal distribution, mean levels of lipids or inflammatory markers were analyzed. For data sets with non-normal distribution, median levels were analyzed. […] In addition, administration of A-002 decreased median levels of CRP (Table 11).
The combined effect of A-002 and statin administration on LDL levels was tested in a population of 332 subjects. This population consisted of the original 204 United States subjects, plus an additional 128 subjects from the Ukraine with stable CAD that received placebo or A-002 based according to the same protocol as the United States subjects. […] Similarly, A-002 decreased LDL levels in subjects receiving a variety of non-statin compounds used in the treatment of CVD, including ezetimibe, AEGR-733/ezetimibe, colesevelam hydrochloride (WelChol®), MK-0524A (Cordaptive®), lisinopril/MC-1 antibody (MC-4232), and Angiotensin Receptor Blocker (ARB)/MC-1 (MC-4262).

[2] = Body weight of ApoE−/− mice on high fat diet during 16 weeks of A-002 (Example 1); type: in vivo; settings: oral gavage
Method: (§2) Male ApoE^−/− mice were fed a high fat diet (21% fat, 0.15% cholesterol, 19.5% casein) ad libitum for two weeks in order to acclimate to the diet. Plasma cholesterol levels and body weight were measured in order to obtain baseline levels, and mice were randomized into three groups of 20 mice based on these measurements. After the acclimation period, mice remained on the high fat diet and were administered A-002 (30 mg/kg or 90 mg/kg) or vehicle only (5% acacia) twice a day for 16 weeks by oral gavage.
(§3) Plasma cholesterol levels and body weight were measured at 4, 8, 12, and 16 weeks after the start of A-002 administration. Comparisons of measurements between test and control mice at each time period were performed using a two-way analysis of variance test (ANOVA) for repeated measures, followed by post-hoc Bonferroni test for significance.

[3] = tested on: ApoE−/− mice; test: Angiotensin II-mediated atherosclerotic plaque formation and aneurysm in ApoE−/− mice (Example 2); type: in vivo
Method: A mouse model of accelerated atherosclerosis was utilized to determine the effect of A-002 administration on atherosclerosis and aneurysm formation. ApoE^−/− mice acclimated to the same high fat diet utilized in Example 1 were administered angiotensin II with water, angiotensin with 5% acacia, or saline infusion and water twice daily for four weeks. […] At the end of the test period, plaque coverage was assessed by three independent reviewers, and their assessments were averaged to determine plaque coverage.

[4] = tested on: ApoE−/− mice; test: Plasma total cholesterol levels in ApoE−/− mice on high fat diet (Example 1); type: in vivo; settings: at 16 weeks
Method: as §2, §3

[5] = tested on: sPLA2; test: Serum sPLA2 concentration in humans, A-002 twice a day (Example 4); type: in vivo, human; settings: ITT population, week 8
Method: as §1

[6] = diabetic subpopulation, week 8, A-002 twice a day
[7] = ezetimibe subpopulation (ezetimibe 10 mg), week 8, A-002 twice a day
[8] = metabolic syndrome subpopulation, week 8, A-002 twice a day
[9] = non-statin subpopulation with baseline serum LDL greater than or equal to 72 mg/dl, week 8, A-002 twice a day
[10] = non-statin subpopulation, week 4, A-002 twice a day
[11] = non-statin subpopulation, week 8, A-002 twice a day
[12] = serum, ITT population, week 8, A-002 50-500 mg twice a day
[13] = serum, ITT population, week 8, A-002 twice a day
[14] = statin subpopulation (US + Ukraine), week 4, A-002 twice a day
[15] = statin subpopulation (US + Ukraine), week 8, A-002 twice a day
[16] = statin subpopulation (US), week 8, A-002 twice a day
[17] = statin subpopulation with baseline serum LDL greater than or equal to 72 mg/dl, week 8, A-002 twice a day
[18] = subpopulation with baseline serum LDL greater than or equal to 72 mg/dl, week 8, A-002 twice a day
[19] = summary Table 20, A-002 alone, statin alone or A-002 plus statin

For CCc1c(C(=O)C(N)=O)c2c(OCC(=O)OC)cccc2n1Cc1ccccc1 [A-002, [[3-(2-Amino-1,2-dioxoethyl)-2-ethyl-1-(phenylmethyl)-1H-indol-4-yl]oxy]acetic acid methyl ester], the “reduction (decrease) of mean serum small LDL particle levels” value ([1]; at eight weeks, United States population, text restating Tables 14 and 17) was 3.25%, the “decrease of mean serum LDL levels” value ([1]; at eight weeks, United States subjects with baseline LDL of 72 mg/dl or greater, text restating Tables 15 and 19) was 8.23% and the “decrease of mean serum LDL levels” value ([1]; at week eight, combined United States and Ukraine populations, Tables 16 and 18) was 4.22%. The “decrease of mean serum LDL levels” value ([1]; at week four, combined United States and Ukraine populations, Tables 16 and 18) was 6.93%, the “% change vs. baseline (mean [LDL])” value [1, 6] was −16.64% and the “Change in mean [LDL] vs. baseline” value [1, 6] was -10.6 mg/dL. The “% change vs. baseline (mean [LDL])” value [1, 7] was −17.8%, the “Change in mean [LDL] vs. baseline” value [1, 7] was -15.4 mg/dL and the “% change vs. baseline (median [TG])” value [1, 8] was −13.99%. For the same compound, the “Change in median [TG] vs. baseline” value [1, 8] was -24.0 mg/dL, the “% change vs. baseline (mean [LDL])” value [1, 9] was −8.23% and the “Change in mean [LDL] vs. baseline” value [1, 9] was -9.2 mg/dL. For the same compound, the “% change vs. baseline (mean [LDL])” value [1, 10] was −6.93%, the “Change in mean [LDL] vs. baseline” value [1, 10] was -8.7 mg/dL and the “% change vs. baseline (mean [LDL])” value [1, 11] was −4.22%. For the same compound, the “% change vs. baseline (mean [small LDL particle])” value [1, 11] was −3.25%, the “Change in mean [LDL] vs. baseline” value [1, 11] was -5.3 mg/dL and the “Change in mean [small LDL particle] vs. baseline” value [1, 11] was -24.0 nmol/L. The “% change vs. baseline (mean [LDL])” value [1, 12] was −10.68%, the “Change in mean [LDL] vs. baseline” value [1, 12] was -8.2 mg/dL and the “% change vs. baseline (mean [LDL particle])” value [1, 13] was −7.13%. For the same compound, the “% change vs. baseline (mean [TG])” value [1, 13] was −6.67%, the “% change vs. baseline (mean [small LDL particle])” value [1, 13] was −8.33% and the “% change vs. baseline (mean [total cholesterol])” value [1, 13] was −8.16%. The “Change in mean [LDL particle] vs. baseline” value [1, 13] was -73.6 nmol/L, the “Change in mean [TG] vs. baseline” value [1, 13] was -10.1 mg/dL and the “Change in mean [small LDL particle] vs. baseline” value [1, 13] was -61.3 nmol/L. For the same compound, the “Change in mean [total cholesterol] vs. baseline” value [1, 13] was -12.8 mg/dL, the “% change vs. baseline (mean [LDL])” value [1, 14] was −14.04% and the “Change in mean [LDL] vs. baseline” value [1, 14] was -10.8 mg/dL. The “% change vs. baseline (mean [LDL])” value [1, 15] was −12.48%, the “Change in mean [LDL] vs. baseline” value [1, 15] was -9.6 mg/dL and the “% change vs. baseline (mean [small LDL particle])” value [1, 16] was −9.00%. For the same compound, the “Change in mean [small LDL particle] vs. baseline” value [1, 16] was -66.2 nmol/L, the “% change vs. baseline (mean [LDL])” value [1, 17] was −16.27% and the “Change in mean [LDL] vs. baseline” value [1, 17] was -15.0 mg/dL. The “LDL levels in subjects receiving non-statin compounds used in the treatment of CVD” value ([1]; subjects on ezetimibe, AEGR-733/ezetimibe, colesevelam hydrochloride, MK-0524A, MC-4232 or MC-4262) was “decreased”, the “% change vs. baseline (mean [LDL])” value [1, 18] was −14.68% and the “Change in mean [LDL] vs. baseline” value [1, 18] was -14.0 mg/dL. For the same compound, the “Observed change following administration: Mean serum [LDL] at week 4” value [1, 19] was −6.93%, the “Observed change following administration: Mean serum [LDL] at week 8” value [1, 19] was −4.22% and the “Observed change following administration: Mean serum [LDL] in ≧72 mg/dl subpopulation at week 8” value [1, 19] was −8.23%. The “Observed change following administration: Mean serum [small LDL particle] at week 8” value [1, 19] was −3.25%, the “Observed change following administration: Mean serum [LDL] at week 8” value ([1]; summary Table 22, A-002 alone, ezetimibe alone or A-002 plus ezetimibe) was −4.22% and the “Body weight increase over the 16 week test period” value ([2]; 30 mg/kg A-002 twice a day) was about 150%. For the same compound, the “Body weight increase over the 16 week test period” value ([2]; 90 mg/kg A-002 twice a day) was about 141%, the “Aneurysm rate (%)” value ([3]; angiotensin II + 5% acacia + 30 mg/kg A-002 twice daily, four weeks) was 0% (0/16) and the plaque content ([3]; angiotensin II/acacia mice, 30 mg/kg A-002 twice daily, four weeks (FIG. 4)) was “significantly decreased”. The “change from baseline in total cholesterol” value ([4]; 30 mg/kg A-002 twice a day) was −10%, the “change from baseline in total cholesterol” value ([4]; 90 mg/kg A-002 twice a day) was −12% and the “% change vs. baseline (median [sPLA2])” value [5] was −86.96%. The “Change in median [sPLA2] vs. baseline” value [5] was -2.00 ng/mL.
